Measurements published in patent publication US20230091047A1 (priority 2019, published 2023).
Where two headings read alike, the source gives them in different places.

Legend:
[1] = tested on: HBV (HepG2.117 cell line, inducibly HBV producing); experiment: Anti-HBV activity: intracellular HBV DNA by real-time PCR in HepG2.117 cells after 3 days of treatment; assay type: cell-based, hepatitis B virus
How it was run: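 HepG2.117 cells (Tet-off, inducible HBV production) were induced to replicate HBV by doxycycline absence, then treated with serially diluted compound for 3 days. Activity was quantified as intracellular HBV DNA by real-time PCR using an HBV-specific primer set and probe.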

in vitro = assay type: cell-based; details: human, HepG2 or HepG2.117 cells, mean value
How it was run: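 Luminescent ATP quantitation served as the viability endpoint following a 3- or 4-day incubation with test compounds.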

[2] = Hepatitis B virus, HepG2.117, 72 h, HepG2.117 cells, intracellular HBV DNA by real-time PCR, 3 days of treatment, mean value; read-out: EC50 (μM, mean value)
[3] = ATPlite, 3-days incubation (not marked with *)
[4] = Hepatitis B virus, HepG2.117, 72 h, HepG2.117 cells, 3 days of treatment, intracellular HBV DNA by real-time PCR; mean value; read-out: EC50 (μM, mean value)
[5] = 3-days incubation (unmarked values), ATPlite

CNC(=O)c1ccc(-n2c(O[C@H](C)C(C)C)nc3c(c2=O)C[C@@H](C)N(C(=O)c2ccc(Cl)c(Cl)c2)C3)cc1 [Compound C458]
EC50 [1, 2]: 0.06 µM | CC50 at 3 days (in vitro; [3]): 24.8 µM

CNC(=O)c1ccc(-n2c(NC(C)C)nc3c(c2=O)C[C@@H](C)N(C(=O)c2cc4c(C)cc(OC)cc4[nH]2)C3)cc1 [Compound C567]
EC50 [1, 2]: 0.67 µM | CC50 at 3 days (in vitro; [3]): 36.5 µM

CNC(=O)c1ccc(-n2c(NC(C)C)nc3c(c2=O)C[C@@H](C)N(C(=O)c2ccc4c(c2)CNC4=O)C3)cc1 [Compound C494]
EC50 [1, 2]: 2.64 µM | CC50 at 3 days (in vitro; [3]): > 50 µM

CC(C)Nc1nc2c(c(=O)n1-c1ccc(-c3ccco3)cc1)CCN(C(=O)c1ccc(Cl)c(Cl)c1)C2 [Compound C175, 7-(3,4-dichlorobenzoyl)-3-[4-(furan-2-yl)phenyl]-2-[(propan-2-yl)amino]-5,6,7,8-tetrahydropyrido[3,4-d]pyrimidin-4(3H)-one]
EC50 [1, 4]: 1.25 µM | CC50 at 3 days (in vitro; [5]): 17 µM

CNC(=O)c1ccc(-n2c(NCc3ccc4cc[nH]c4c3)nc3c(c2=O)C[C@@H](C)N(C(=O)c2ccc(Cl)c(Cl)c2)C3)cc1 [Compound C325, 4-[(6R)-7-(3,4-dichlorobenzoyl)-2-{[(1H-indol-6-yl)methyl]amino}-6-methyl-4-oxo-5,6,7,8-tetrahydropyrido[3,4-d]pyrimidin-3(4H)-yl]-N-methylbenzamide]
EC50 [1, 4]: 0.42 µM | CC50 at 3 days (in vitro; [5]): 22.8 µM

COc1ccc(CNc2nc3c(c(=O)n2-c2ccc(-c4ncco4)cc2)CCN(C(=O)c2ccc(Cl)c(Cl)c2)C3)cc1 [Compound C160, 7-(3,4-dichlorobenzoyl)-2-{[(4-methoxyphenyl)methyl]amino}-3-[4-(1,3-oxazol-2-yl)phenyl]-5,6,7,8-tetrahydropyrido[3,4-d]pyrimidin-4(3H)-one]
EC50 [1, 4]: 0.54 µM | CC50 at 3 days (in vitro; [5]): > 50 µM

Cc1noc(C)c1-c1ccc(-n2c(NC(C)C)nc3c(c2=O)C[C@@H](C)N(C(=O)c2ccc(Cl)c(Cl)c2)C3)cn1 [Compound C264, (6R)-7-(3,4-dichlorobenzoyl)-3-[6-(3,5-dimethyl-1,2-oxazol-4-yl)pyridin-3-yl]-6-methyl-2-[(propan-2-yl)amino]-5,6,7,8-tetrahydropyrido[3,4-d]pyrimidin-4(3H)-one]
EC50 [1, 4]: 0.26 µM | CC50 at 3 days (in vitro; [5]): > 50 µM

CNC(=O)c1ccc(-n2c(N3CC4CC3C4)nc3c(c2=O)C[C@@H](C)N(C(=O)c2ccc(Cl)c(C(F)(F)F)c2)C3)c(Cl)c1 (single isomer, unassigned) [Compound C701a]
EC50 [1, 4]: 0.04 µM | CC50 at 3 days (in vitro; 3-days incubation (unmarked values), ATPlite viability): > 50 µM

CC(C)Nc1nc2c(c(=O)n1-c1ccc(S(C)(=O)=O)cc1)CCN(C(=O)c1ccc3ncn(C)c3c1)C2 [Compound C363]
EC50 [1, 4]: > 50 µM | CC50 at 3 days (in vitro; [5]): > 50 µM

CNC(=O)c1ccc(-n2c(NC(C)C)nc3c(c2=O)C[C@@H](C)N(C(=O)c2cc(Cl)c(Br)cc2OC)C3)cc1 [Compound C521]
EC50 [1, 2]: 7.64 µM | CC50 at 3 days (in vitro; [3]): > 50 µM

CNC(=O)c1ccc(-n2c(NCc3cn(C)nn3)nc3c(c2=O)C[C@@H](C)N(C(=O)c2ccc(Cl)c(Cl)c2)C3)cc1 [Compound C469]
EC50 [1, 2]: > 25 µM | CC50 at 3 days (in vitro; [3]): > 50 µM

CNC(=O)c1ccc(-n2c(NC(C)C)nc3c(c2=O)C[C@@H](C)N(C(=O)c2ccc(Br)cc2Cl)C3)cc1 [Compound C565]
EC50 [1, 2]: 0.68 µM | CC50 at 3 days (in vitro; [3]): > 50 µM

CNC(=O)c1cc(-n2c(N[C@@H](C)c3ccc(OC(F)(F)F)cc3)nc3c(c2=O)C[C@@H](C)N(C(=O)c2ccc(Cl)c(Cl)c2)C3)[nH]n1 [Compound C607]
EC50 [1, 2]: 0.14 µM | CC50 at 3 days (in vitro; [3]): 11.4 µM

CNC(=O)c1ccc(-n2c(NC(C)c3cccs3)nc3c(c2=O)C[C@@H](C)N(C(=O)c2ccc(Cl)c(Cl)c2)C3)cc1 (stereo partly shown) [Compound C550]
EC50 [1, 2]: 0.54 µM | CC50 at 3 days (in vitro; [3]): 30.2 µM

CNC(=O)c1ccc(-n2c(N[C@@H](c3ccc(OC)cc3)C(C)C)nc3c(c2=O)C[C@@H](C)N(C(=O)c2ccc(Cl)c(Cl)c2)C3)cc1 (single isomer, unassigned) [Compound C422a]
EC50 [1, 2]: 7.77 µM | CC50 at 3 days (in vitro; [3]): 10.5 µM

CC(C)Nc1nc2c(c(=O)n1CCNS(C)(=O)=O)CCN(C(=O)c1ccc(Cl)c(Cl)c1)C2 [Compound C112, N-{2-[7-(3,4-dichlorobenzoyl)-4-oxo-2-[(propan-2-yl)amino]-5,6,7,8-tetrahydropyrido[3,4-d]pyrimidin-3(4H)-yl]ethyl}methanesulfonamide]
EC50 [1, 4]: 11.5 µM | CC50 at 3 days (in vitro; [5]): > 50 µM

CNC(=O)c1cc(-n2c(N[C@@H](C)c3ccc(C(F)(F)F)cc3)nc3c(c2=O)C[C@@H](C)N(C(=O)c2ccc(Cl)c(Cl)c2)C3)n(C)n1 [Compound C534]
EC50 [1, 2]: 0.14 µM | CC50 at 3 days (in vitro; [3]): > 50 µM

CNC(=O)c1ccc(-n2c(N(C)Cc3cccc(OC)c3)nc3c(c2=O)C[C@@H](C)N(C(=O)c2ccc(Cl)c(Cl)c2)C3)cc1 [Compound C457]
EC50 [1, 2]: 0.1 µM | CC50 at 3 days (in vitro; [3]): 38.1 µM

COc1ccc(CNc2nc3c(c(=O)n2-c2ccccc2Cl)CCN(C(=O)c2ccc(Cl)c(Cl)c2)C3)cc1 [Compound C15, 3-(2-chlorophenyl)-7-(3,4-dichlorobenzoyl)-2-{[(4-methoxyphenyl)methyl]amino}-5,6,7,8-tetrahydropyrido[3,4-d]pyrimidin-4(3H)-one]
EC50 [1, 4]: 1.08 µM | CC50 at 3 days (in vitro; [5]): > 50 µM

CNC(=O)c1ccc(-n2c(N[C@@H](C)c3ccccn3)nc3c(c2=O)C[C@@H](C)N(C(=O)c2ccc(Cl)c(Cl)c2)C3)cc1 (single isomer, unassigned) [Compound C321, 4-[(6R)-7-(3,4-dichlorobenzoyl)-6-methyl-4-oxo-2-{[(1*S)-1-(pyridin-2-yl)ethyl]amino}-5,6,7,8-tetrahydropyrido[3,4-d]pyrimidin-3(4H)-yl]-N-methylbenzamide]
EC50 [1, 4]: 0.94 µM | CC50 at 3 days (in vitro; [5]): > 50 µM

CNC(=O)c1ccc(-n2c(NC(C)Cc3c[nH]c4ccc(F)cc34)nc3c(c2=O)C[C@@H](C)N(C(=O)c2ccc(Cl)c(Cl)c2)C3)cc1 (stereo partly shown) [Compound C548]
EC50 [1, 2]: 0.58 µM | CC50 at 3 days (in vitro; [3]): 10.3 µM

CNC(=O)c1ccc(-n2c(NC(C)C)nc3c(c2=O)C[C@@H](C)N(C(=O)c2cn4ccccc4n2)C3)cc1 [Compound C497]
EC50 [1, 2]: 11.8 µM | CC50 at 3 days (in vitro; [3]): > 50 µM

CNC(=O)c1ccc(-n2c(N[C@@H](C)c3cc(C)no3)nc3c(c2=O)C[C@@H](C)N(C(=O)c2ccc(Cl)c(Cl)c2)C3)cc1 (single isomer, unassigned) [Compound C433b]
EC50 [1, 2]: 0.73 µM | CC50 at 3 days (in vitro; [3]): > 50 µM

CC(C)Nc1ncc(-n2c(NC(C)C)nc3c(c2=O)C[C@@H](C)N(C(=O)c2ccc(Cl)c(Cl)c2)C3)cn1 [Compound C279, (6R)-7-(3,4-dichlorobenzoyl)-6-methyl-2-[(propan-2-yl)amino]-3-{2-[(propan-2-yl)amino]pyrimidin-5-yl}-5,6,7,8-tetrahydropyrido[3,4-d]pyrimidin-4(3H)-one]
EC50 [1, 4]: 0.31 µM | CC50 at 3 days (in vitro; [5]): > 46 µM

CNC(=O)c1ccc(-n2c(N[C@H]3CCCC3(C)C)nc3c(c2=O)C[C@@H](C)N(C(=O)c2ccc(Cl)c(Cl)c2)C3)cc1 (single isomer, unassigned) [Compound C319, 4-[(6R)-7-(3,4-dichlorobenzoyl)-2-{[(1*S)-2,2-dimethylcyclopentyl]amino}-6-methyl-4-oxo-5,6,7,8-tetrahydropyrido[3,4-d]pyrimidin-3(4H)-yl]-N-methylbenzamide]
EC50 [1, 4]: 0.21 µM | CC50 at 3 days (in vitro; [5]): 23.5 µM

CC(C)Nc1nc2c(c(=O)n1-c1ccc(S(C)(=O)=O)cc1)CCN(C(=O)c1ccc(Cl)c(Cl)c1)C2 [Compound C85, 7-(3,4-dichlorobenzoyl)-3-[4-(methanesulfonyl)phenyl]-2-[(propan-2-yl)amino]-5,6,7,8-tetrahydropyrido[3,4-d]pyrimidin-4(3H)-one]
EC50 [1, 4]: 0.85 µM | CC50 at 3 days (in vitro; [5]): > 50 µM

COc1ccc(CNc2nc3c(c(=O)n2-c2cccc(C(F)(F)F)c2)CCN(C(=O)c2ccc(Cl)c(Cl)c2)C3)cc1 [Compound C7, 7-(3,4-dichlorobenzoyl)-2-{[(4-methoxyphenyl)methyl]amino}-3-[3-(trifluoromethyl)phenyl]-5,6,7,8-tetrahydropyrido[3,4-d]pyrimidin-4(3H)-one]
EC50 [1, 4]: 2.03 µM | CC50 at 4 days (in vitro; 4-days incubation (values marked with *), ATPlite): > 50 µM

CC(C)Nc1nc2c(c(=O)n1-c1ccc(-c3cncs3)cc1)CCN(C(=O)c1ccc(Cl)c(Cl)c1)C2 [Compound C188, 7-(3,4-dichlorobenzoyl)-2-[(propan-2-yl)amino]-3-[4-(1,3-thiazol-5-yl)phenyl]-5,6,7,8-tetrahydropyrido[3,4-d]pyrimidin-4(3H)-one]
EC50 [1, 4]: 0.51 µM | CC50 at 3 days (in vitro; [5]): > 50 µM

CNC(=O)c1cc(-n2c(NC(C)c3ccc(OC(F)(F)F)cc3)nc3c(c2=O)C[C@@H](C)N(C(=O)c2ccc(Cl)c(Cl)c2)C3)[nH]n1 (stereo partly shown) [Compound C531]
EC50 [1, 2]: 0.21 µM | CC50 at 3 days (in vitro; [3]): 26.3 µM
